Structures are written as SMILES. Where two headings read alike, the source gives them in different places.

Consider twelve molecules from patent US20070027215A1, “Nuclear receptor ligands and ligand binding domains” (The Regents of the University of California, priority 1995, published 2007).

Assay [1] has as its system TR. To be noted: cited from earlier work.
The subject of assay [2] is TR. The assay is described as follows: Receptor binding affinity stated in the structure discussion.
The target in assay [3] is T1, TR-β (Homo sapiens, UniProt P10828).
T1 sequence (P10828 1-461): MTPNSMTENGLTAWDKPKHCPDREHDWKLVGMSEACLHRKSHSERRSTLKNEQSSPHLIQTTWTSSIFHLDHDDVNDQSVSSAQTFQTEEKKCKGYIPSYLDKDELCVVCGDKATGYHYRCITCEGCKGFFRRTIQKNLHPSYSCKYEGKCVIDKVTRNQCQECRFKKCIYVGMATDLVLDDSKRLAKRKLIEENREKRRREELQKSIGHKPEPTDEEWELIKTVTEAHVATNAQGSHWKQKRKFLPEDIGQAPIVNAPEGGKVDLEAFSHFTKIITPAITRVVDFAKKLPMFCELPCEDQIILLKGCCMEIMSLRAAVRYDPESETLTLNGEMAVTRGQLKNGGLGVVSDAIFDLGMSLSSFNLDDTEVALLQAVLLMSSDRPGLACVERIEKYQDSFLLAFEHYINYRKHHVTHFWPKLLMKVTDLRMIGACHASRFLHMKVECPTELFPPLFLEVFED
The assay can be described thus: Binding to TR isoform TR-β. As to the method: 3,5-dibromo-4-(3′,5′-diisopropyl-4′-hydroxyphenoxy)Benzoic Acid is a TR-α Selective Synthetic Ligand. [drawing 4] 3,5-dibromo-4-(3′,5′-diisopropyl-4′-hydroxyphenoxy)benzoic acid (Compound 11), the structure of which is drawn above, is assayed for binding to the two different isoforms of the TR, TR-α and TR-β. […] Assays for determining selective binding to the TR-α or TR-β LBD can include reporter assays, as described herein. See also Hollenberg, et al., J. Biol. Chem., (1995) 270(24):14274-14280.

The target in assay [4] is T2, TR-α (Homo sapiens, UniProt P10827).
T2 sequence (P10827 1-410 isoform P10827-2): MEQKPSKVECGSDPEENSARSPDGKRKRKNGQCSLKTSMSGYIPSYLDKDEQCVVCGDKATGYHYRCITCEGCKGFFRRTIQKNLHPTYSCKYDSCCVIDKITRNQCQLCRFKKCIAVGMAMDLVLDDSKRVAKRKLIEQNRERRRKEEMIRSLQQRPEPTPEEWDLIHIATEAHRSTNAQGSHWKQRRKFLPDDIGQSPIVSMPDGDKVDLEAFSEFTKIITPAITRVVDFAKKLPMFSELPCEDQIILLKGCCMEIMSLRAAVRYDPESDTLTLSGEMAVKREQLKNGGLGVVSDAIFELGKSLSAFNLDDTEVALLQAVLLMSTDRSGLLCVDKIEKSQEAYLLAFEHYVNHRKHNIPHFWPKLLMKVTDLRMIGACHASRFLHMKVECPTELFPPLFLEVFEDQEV
The assay can be described thus: Binding to TR isoform TR-α. The text has this:
Assays for determining selective binding to the TR-α or TR-β LBD can include reporter assays, as described herein.

Assay [5] addresses T3, human TR-α LBD (Homo sapiens, UniProt P10827).
T3 sequence (P10827 163-410 isoform P10827-2 limits assumed): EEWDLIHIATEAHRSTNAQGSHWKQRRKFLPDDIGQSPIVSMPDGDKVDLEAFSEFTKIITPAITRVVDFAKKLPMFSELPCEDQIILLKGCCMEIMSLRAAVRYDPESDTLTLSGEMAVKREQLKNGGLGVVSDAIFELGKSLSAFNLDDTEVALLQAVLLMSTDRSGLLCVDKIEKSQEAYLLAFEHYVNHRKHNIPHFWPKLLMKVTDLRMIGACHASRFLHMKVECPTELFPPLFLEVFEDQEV
The assay can be described thus: Competition for [125I]T3 binding, native TR-α. The settings on record: read-out: Binding Affinity, Native TR-α; competition with 1 nM [125I]T3.

Assay [6] deals with T4, human TR-β LBD (Homo sapiens, UniProt P10828).
T4 sequence (P10828 217-461 limits assumed): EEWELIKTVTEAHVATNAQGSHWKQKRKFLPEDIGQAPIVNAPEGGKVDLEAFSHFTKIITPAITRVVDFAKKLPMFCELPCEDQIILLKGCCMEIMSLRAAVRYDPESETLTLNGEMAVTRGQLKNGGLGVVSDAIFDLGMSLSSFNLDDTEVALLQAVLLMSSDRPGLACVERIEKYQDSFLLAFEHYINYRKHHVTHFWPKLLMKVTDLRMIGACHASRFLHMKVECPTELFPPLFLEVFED
The assay is described as follows: Competition for [125I]T3 binding, native TR-β. The settings on record: read-out: Binding Affinity, Native TR-β. As to the method:
Assays are performed in duplicate.
The following assays residues involved in selective binding among TR isoforms.

Assay [7] deals with TR binding to RIP-140. The assay can be described thus: RIP-140 coactivation assay (35S-RIP-140 binding to liganded TR). Also noted: key: +: RIP-140 Binding; −: RIP-140 Binding. The format is biochemical. As to the method: To test the ability of TR ligands to activate the binding of TR to the nuclear activation protein RIP-140 (a nuclear protein that can bind to nuclear receptors, such as the estrogen receptor), a TR ligand is liganded to TR and then incubated with RIP-140 as described in V. Cavailles, et al., EMBO J., 14(15):3741-3751 (1995), which is incorporated by reference herein. In this assay, 35S-RIP-140 protein binds to liganded TR but not unliganded TR.

The target of assay [8] is thyroid receptor (TR). The assay is described as follows: Receptor binding assay with TR from rat liver nuclei and [125I]T3. The settings on record: TR from rat liver nuclei, 1 nM [125I]T3, overnight at 4° C.; read-out: App.Kd. As to the method:
Baxter, and […]. […] The apparent Kd's are calculated using the method described by […]

Assay [9] relates to thyroid hormone receptors (TRs). The assay can be described thus: CAT reporter gene activation in cultured cells. The format is cell-based. To be noted: U-937. As to the method: To test TR activation of transcription in a cellular environment, TR ligands are assayed for their ability to activate a reporter gene, chloramphenicol transferase (“CAT”), which has a TR DNA binding sequence operatively linked to it. Either GC or […] cells (available from the ATCC) can be used, respectively). In such assays, a TR ligand crosses the cell membrane, binds to the TR, and activates the TR, which in turn activates gene transcription of the CAT by binding the TR DNA binding region upstream of the CAT gene. The effective concentration for half maximal gene activation (EC50) is determined by assaying CAT gene activation at various concentrations as described herein and in the literature.
After electroporation, cells are pooled in growth medium (RPMI with 10% charcoal-treated, hormone stripped, newborn bovine serum), plated in 6-well dishes and treated with either ethanol or hormone. CAT activity is determined 24 hours later as described D. C. Leitman, R. C.
In general terms: In a reporter assay the amount or activity of a reporter protein is the signal.

Where [10] appears, read: half maximal CAT gene activation, GC or U937 cells, read-out: EC50.

For `O=C(O)Cc1cc(I)c(Oc2ccc(O)c(I)c2)c(I)c1` [Triac, 3,5,3′-triiodothyroacetic acid], in [1], the “binding affinity compared with T3” value is “equal to that of T3”. Further, in assay [2], the “affinity for the alpha versus beta isoforms” value was “equal affinity”.

By IC50 is commonly meant the midpoint of a concentration-inhibition curve. Consider `CC(C)c1cc(Oc2c(Br)cc(C(=O)O)cc2Br)cc(C(C)C)c1O` [Compound 11, 3,5-dibromo-4-(3′,5′-diisopropyl-4′-hydroxyphenoxy)benzoic acid], for which the IC50 in assay [3] is 910 nM; in assay [4], 1600 nM.

Regarding `Cc1cc(C[C@H](N)C(=O)O)cc(C)c1Oc1ccc(O)c(C(C)C)c1` [Dimit, 3,5-dimethyl-3′-isopropylthyronine], the Kd was found to be 6 nM in [5] and 8 nM in assay [6].

Regarding `CC(C)c1cc(Oc2c(I)cc(CC(N)C(=O)O)cc2I)ccc1O` (stereo not shown) [TS9, reference compound], in assay [7], the “Coactivation Assay RIP-140” value is “+”.

`CC(C)c1cc(Oc2c(Br)cc(C[C@H](N)C(=O)O)cc2Br)ccc1O` [IpBr2, 3,5-dibromo-3′-isopropylthyronine]: in assay [5], the Kd worked out at 0.017 nM.

A word on the EC50: it is the concentration that produces a half-maximal response. For the molecule `CC(C)(C)OC(=O)NC(Cc1cc(I)c(Oc2ccc(O)cc2)c(I)c1)C(=O)O` (stereo not shown) [TS5], the “Coactivation Assay RIP-140” value in assay [7] is given as “+”. Moreover, the Kd in assay [8] is 220 nM. Further, the EC50 in assay [9] (setting [10]) is 1000 nM.

As for `CC(C)(C)OC(=O)N[C@@H](Cc1cc(I)c(Oc2ccc(O)c(I)c2)c(I)c1)C(=O)O` [TS4], the “Coactivation Assay RIP-140” value in assay [7] is on record as “+”. For the same molecule, in [8], the Kd worked out at 8 nM.

Turning to `N[C@@H](Cc1cc(I)c(Oc2cc(I)c(O)c(I)c2)c(I)c1)C(=O)O` [Compound T4, 3,5,3′,5′-tetraiodo-L-thyronine, reference compound], the “affinity for the receptor as % of the affinity of T3” value in assay [1] is reported as 2%. Also, in [7], the “Coactivation Assay RIP-140” value is reported as “+”. Also, the EC50 in assay [9] (setting [10]) was found to be 1 nM.

For the molecule `O=C(N[C@@H](Cc1cc(I)c(Oc2ccc(O)c(I)c2)c(I)c1)C(=O)O)OCC1c2ccccc2-c2ccccc21` [TS3], the “Coactivation Assay RIP-140” value in assay [7] is on record as “+”. The Kd in [8] was found to be 4 nM. Further, the EC50 in [9] (setting [10]) worked out at 10 nM.

`O=C(N[C@@H](Cc1cc(I)c(Oc2ccc(O)c(I)c2)c(I)c1)C(=O)O)C(c1ccccc1)c1ccccc1` [TS1]: the “Coactivation Assay RIP-140” value in [7] is “+”. In addition, the Kd in assay [8] worked out at 4 nM. For the same molecule, the concentration giving a half-maximal response (EC50) in [9] (setting [10]) was determined as 100 nM.

In the case of `N[C@@H](Cc1cc(I)c(Oc2ccc(O)c(I)c2)c(I)c1)C(=O)O` [Compound T3, 3,5,3′-triiodothyronine, reference compound], the “Coactivation Assay RIP-140” value in [7] is given as “+”. For the same molecule, in assay [9], the 50% effective concentration (EC50) was 0.1 nM.

On to `CCCCCCCCCCCCCCCCC(=O)N[C@@H](Cc1cc(I)c(Oc2ccc(O)c(I)c2)c(I)c1)C(=O)O` [TS2], for which the Kd in assay [8] was 1400 nM.
